According to patent US7897641B2, “Composition for the prevention and/or treatment of the cytotoxic effects induced by the use of immunosuppressive agents” (Sigma-Tau Industrie Farmaceutiche Riunite S.p.A., priority 2000, dated 2011):
Like-named read-outs stand apart in the source and are kept apart here.

Tests used:
[1] = system: isolated, perfused rat kidneys; assay: Glomerular and tubular morphometric abnormalities induced by cyclosporin-A in perfused rat kidney; settings: for Morphometric indices, tubular ID/ED / Morphometric indices, glomerular CD/BD: kidneys perfused with cyclosporin-A 2 mg/L, alone or with treatment 5 mg/L; for Morphometric indices, tubular ID/ED: control 0.36 ± 0.03; for Morphometric indices, glomerular CD/BD: control 0.93 ± 0.09
Excerpt: (§1) In these tests a group of rats were used whose kidneys were isolated, after bilateral nephrectomy, and perfused according to the technique described by Schure and Maack.
(§2) The kidneys thus isolated were perfused by means of a pulsating pump both with a solution containing cyclosporin A or tacrolimus and with a solution containing propionyl L-carnitine or glycine or the two components in combination.
The parameters observed on the kidneys thus perfused were the capillary diameters (CD) and the Bowman's capsule diameters (BD) and equally the external and internal diameter (ID) and also the diameter at the level of the basal membrane (ED) of at least 20 proximal tubules.

[2] = system: isolated, perfused rat kidneys; assay: Renal lipoperoxidation induced by cyclosporin-A (MDA + 4-HDA assay); settings: for MDA + 4-HDA: renal cortex, kidneys perfused with cyclosporin-A, alone or with treatment, control 2.1 ± 0.91
Procedure: as §1, §2
(§3) Lipid peroxidation was measured on samples of renal cortex as described by Longoni (Longoni B., Int. J. Tissue React., 21.7.1997-Lowry O. H., J. Biol. Bioch., 193:265, 1951) and ATP concentrations were determined according to the method described by Sumpio (Sumpio B. E., Am. J. Physiol., 247, PT2, 1047, 1984).

[3] = system: isolated, perfused rat kidneys; assay: Reduction of renal ATP induced by cyclosporin-A; settings: for ATP: kidneys perfused with cyclosporin-A, alone or with treatment, control 6.70 ± 0.51
Procedure: as §1, §2, §3

[4] = system: isolated and perfused rat kidney; assay: Tests of cyclosporin-A toxicity in isolated and perfused rat kidney, overall assessment; settings: in words
Excerpt: (§4) Using the isolated rat kidney according to the technique described by Maack (Maack P., Kidney Int., 30:142, 1986) and Shure (Shure K. H., Delugers Arch., 35:4, 1975) and perfusing it with a solution containing cyclosporin-A, it is possible to detect the toxic reactions this substance induces at the renal level relating both to the renal cytomorphology, particularly at the tubular level, and to arteriolar and […] capillary vasoconstriction and the release of enzymes such as alanine aminopeptidase (AAP) and N-acetylglucosaminidase (NAG), the release of which is regarded as a sign of cell damage, as is the release of vasoactive substances such as histamine and endothelin-1.
as §1, §2

[5] = system: isolated, perfused rat kidneys; assay: Renal tubular damage evaluated by release of alanine aminopeptidase (AAP) and N-acetylglucosaminidase (NAG) in isolated, perfused rat kidneys; settings: treatment 5 mg/L each, after 5 min perfusion
Excerpt: as §4, §1, §2
(§5) A […] method was used to measure both AAP and NAG on the renal venous flow. Histamine and endothelin-1 were measured with a colorimetric method or with RIA.

[6] = system: rats intoxicated with CCL4; assay: Protection against liver damage in rats intoxicated with CCl4; type: in vivo, rat; settings: treatment 300 mg/kg i.p. half an hour before CCl4; for Alanine aminotranferase activity (ALT): blood 24 h after CCl4 1 mL/kg of 20% solution, controls 12.5 ± 1.7; for Triglycerides: liver 24 h after CCl4, controls 6.5 ± 0.7
Procedure: CCl4 was administered at the dose of 1 mL/kg of a 20% solution in olive oil according to the technique described by Bernacchi (Bernacchi A. G., Brit. J. Exp. Pathol., 61:505, 1980).
Twenty-four hours after administration of CCl4, alanine aminotransferase was assayed as an indicator of enzymatic liver damage in blood from the animals thus treated, according to the colorimetric method described by Reitman (Reitman S., Am. J. Clin. Pathol., 28:56, […]), whereas from the livers taken from the same animals triglycerides were extracted with methanol and chloroform and assayed according to the method described by Kleir (Kleir, J. Biochem. Clin. Bohenescov., 9:243, 1999). The livers were then fixed with Carnon fixative and, after embedding in paraplast, were stained with haematoxylin and eosin.

[7] = system: isolated, perfused rat kidneys; assay: Histamine and endothelin-1 release induced by cyclosporin-A or tacrolimus in isolated, perfused rat kidneys; settings: for % inhibition of release, endothelin-1 / % inhibition of release, histamine: treatment 5 mg/L each, after 1 min perfusion
Excerpt: as §4, §1, §2, §5

[8] = system: perfused rat kidneys; assay: Renal hypertension induced by cyclosporin-A or tacrolimus in perfused rat kidneys; settings: treatment 5 mg/L each; for inhibition at 5 µg/mL: Rattus norvegicus
Excerpt: as §4, §1, §2
Arterial pressure on the perfused kidney was measured by means of a manometer connected up to the renal artery.

[9] = system: Sprague Dawley rats; assay: Toxicology tests, acute i.p./oral and prolonged oral administration
[10] = system: Sprague Dawley rats; settings: rat, in vivo, 500 mg/kg
[11] = induced by cyclosporin-A 2 mg/L

| Compound | Morphometric indices, tubular ID/ED [1] | Morphometric indices, glomerular CD/BD [1] | MDA + 4-HDA [2] [nmol/mg protein] | ATP [3] [nM/g tissue] | protection of the kidney against morphological/vascular and cellular biochemical damage induced by cyclosporin-A or tacrolimus [4] | % inhibition of release, AAP [5, 11] [%] | % inhibition of release, NAG [5, 11] [%] | % inhibition of release, AAP ([5]; induced by tacrolimus 400 μg/L) [%] | % inhibition of release, NAG ([5]; induced by tacrolimus 400 μg/L) [%] | Alanine aminotranferase activity (ALT) [6] [U/L] | Triglycerides [6] [mg/g] | % inhibition of release, endothelin-1 [7, 11] [%] | % inhibition of release, histamine [7, 11] [%] | % inhibition of release, endothelin-1 ([7]; induced by tacrolimus 400 μg/L) [%] | % inhibition of release, histamine ([7]; induced by tacrolimus 400 μg/L) [%] | mortality or other sign of toxic effects ([9]; intraperitoneal, 0.5 g/kg each) | mortality or other sign of toxic effects ([9]; oral, 1 g/kg each) | also measured |
| --- | --- | --- | --- | --- | --- | --- | --- | --- | --- | --- | --- | --- | --- | --- | --- | --- | --- | --- |
| cyclosporin-A [reference compound] | 0.75 ± 0.08 | 0.78 ± 0.02 | 6.5 ± 0.52 | 4.51 ± 0.41 | – | – | – | – | – | – | – | – | – | – | – | – | – | – |
| CCC(=O)O[C@H](CC(=O)[O-])C[N+](C)(C)C [Propionyl L-carnitine, propionyl L-carnitine] | 0.40 ± 0.06 | 0.86 ± 0.7 | 4.2 ± 0.39 | 6.05 ± 0.61 | effective in protecting the kidney | 32.8 ± 3.1 | 30.5 ± 2.6 | 35.1 ± 2.9 | 30.8 ± 2.5 | 75.8 ± 5.5 | 18.8 ± 1.8 | 41.2 ± 3.8 | 39.5 ± 4.1 | 34.7 ± 2.7 | 41.5 ± 3.9 | without any mortality being observed | without any mortality being observed | % inhibition of hypertensive effect after 5 min ([8]; hypertension induced by cyclosporin-A 2 mg/L, 5 min): 18.2 ± 1.5%; % inhibition of hypertensive effect after 20 min ([8]; hypertension induced by cyclosporin-A 2 mg/L, 20 min): 28.4 ± 2.1%; % inhibition of hypertensive effect after 5 min ([8]; hypertension induced by tacrolimus 400 μg/L, 5 min): 22.5 ± 2.3%; % inhibition of hypertensive effect after 20 min ([8]; hypertension induced by tacrolimus 400 μg/L, 20 min): 30.7 ± 2.9%; tolerability of prolonged oral administration ([9]; oral 500 mg/kg each for 20 days consecutively, weight gain and blood chemistry without toxic abnormalities): well tolerated |
| NCC(=O)O [Glycine, glycine] | 0.66 ± 0.5 | 0.80 ± 0.5 | 4.8 ± 0.41 | 4.56 ± 0.49 | much less effective | 14.2 ± 0.9 | 16.5 ± 0.6 | 18.5 ± 1.1 | 17.2 ± 0.9 | 90.2 ± 8.6 | 22.2 ± 2.1 | 8.8 ± 0.9 | 10.4 ± 1.1 | 6.5 ± 0.7 | 7.5 ± 0.8 | without any mortality being observed | without any mortality being observed | tolerability of prolonged oral administration [10]: well tolerated; action on the morphological damage induced by cyclosporin A ([1]; in words): not significantly detectable; effect on the lipid peroxidation activity induced by cyclosporin-A ([2]; in words): detectable protective effect; action on the reduction in intracellular ATP ([3]; cyclosporin A, in words): not significantly detectable; action on the release of vasoactive substances such as histamine and endothelin ([7]; cyclosporin A, in words): not significantly detectable; inhibition at 5 µg/mL ([8]; 5 min, hypertension induced by cyclosporin-A 2 mg/L, 5 min, read-out: % inhibition of hypertensive effect after 5 min): 6.3 ± 0.9%; inhibition at 5 µg/mL ([8]; 5 min, hypertension induced by tacrolimus 400 μg/L, 5 min, read-out: % inhibition of hypertensive effect after 5 min): 4.8 ± 7.1%; inhibition at 5 µg/mL ([8]; 20 min, hypertension induced by cyclosporin-A 2 mg/L, 20 min, read-out: % inhibition of hypertensive effect after 20 min): 6.8 ± 0.3%; inhibition at 5 µg/mL ([8]; 20 min, hypertension induced by tacrolimus 400 μg/L, 20 min, read-out: % inhibition of hypertensive effect after 20 min): 7.4 ± 0.9% |
| ClC(Cl)(Cl)Cl [CCl4, carbon tetrachloride, reference compound] | – | – | – | – | – | – | – | – | – | 105.4 ± 3.8 | 26.5 ± 0.11 | – | – | – | – | – | – | – |
